Data taken from EP0590919A1, “Therapeutic agents for parkinson's disease” (KYOWA HAKKO KOGYO CO., LTD., priority 1992, dated 1994).

How the values were obtained:
dd-strain male mice = assay: Acute toxicity test (minimum lethal dose, oral); assay type: in vivo; details: oral administration, three mice per group, mortality seven days after administration
Description: Test compounds were orally administered to groups of dd-strain male mice weighing 20 ± 1 g, each group consisting of three mice. Seven days after the administration, minimum lethal dose (MLD) of each compound was determined by observing the mortality.

[1] = system: Haloperidol-Induced Catalepsy; assay: Effect on haloperidol-induced catalepsy; assay type: in vivo, mice; details: 10 mg/kg orally; for Number of the Animals Showing Remission: of five mice, catalepsy score not more than 4 points; for Remission Rate (%): rate of decrease in total score based on control group; for Total Score: total catalepsy score of five mice (25 points at the full), haloperidol 1.0 mg/kg i.p.
Description: Haloperidol (Janssen Pharmaceutica) suspended in 0.3% CMC was intraperitoneally administered to each mouse at a dose of 1.0 mg/kg. Test compounds were suspended in 0.3% CMC or in injectable distilled water (Otsuka Pharmaceutical Co., Ltd.) containing Tween 80. L-DOPA (Kyowa Hakko Kogyo Co., Ltd.) and benserazide hydrochloride (Kyowa Hakko Kogyo Co., Ltd.) were suspended in 0.3% CMC. One hour after the haloperidol administration, the test compound suspensions and the control suspension [injectable distilled water (Otsuka Pharmaceutical Co., Ltd.) containing Tween 80] containing no test compound were orally administered to separate groups of the mice (0.1 ml per 10 g of body weight). One hour after the administration of the test compound, the forelimbs of each mouse and subsequently the hindlimbs of the same mouse were placed on a 4.5 cm-high, 1.0 cm-wide bar and catalepsy was estimated. […] The catalepsy score and the standard of judgment are shown below. […] The number of the animals showing remission against catalepsy is the number of the mice for which the catalepsy score was not more than 4 points. […] The ED₅₀ values were calculated by Probit analysis.

A₂ receptor [2] = target: T1, A₂ receptor (Rattus norvegicus, UniProt P30543); assay: Adenosine A₂ receptor binding test (³H-CGS 21680 binding); details: [^3H]CGS 21680 was used, rat corpus striatum, read-out: A2 Receptor Inhibition (%); for inhibition at 1 µM: 10^-6M; for inhibition at 0.1 µM: 10^-7M
T1 construct: from tissue; host or cells: rat corpus striatum membrane preparation
Description: (§1) The similar procedure as in the above-described adenosine A₁ receptor binding test was repeated using rat corpus striatum to obtain the final precipitate of the tissue thereof. The precipitate was suspended in 50 mM Tris HCl buffer containing 10 mM magnesium chloride and 0.02 unit/mg tissue of adenosine deaminase (manufactured by Sigma Co.) to give a tissue concentration of 5 mg (wet weight)/ml.
The similar procedure as above was repeated to determine the radioactivity bound to the A₂ receptors using 50 µl of CGS 21680 labeled with tritium [³H-2-[p-(2-carboxyethyl)-phenethylamino]-5'-(N-ethylcarboxamide)adenosine: 40 Ci/mmol, manufactured by New England Nuclear Co. (J. Pharmacol. Exp. Ther., 251, 888 (1989)] (final concentration: 4.0 nM) in place of 50 µl of the mixture of N-ethylcarboxamidoadenosine labeled with tritium (³H-NECA: 26 Ci/mmol, manufactured by Amersham Co.) (final concentration: 3.8 nM) and cyclopentyladenosine (CPA, manufactured by Sigma Co.) (final concentration: 50 nM).
The inhibition rate of the test compound against the binding of A₂ receptors (³H-CGS 21680 binding) was calculated by the following equation: [formula] [Notes] • 1. "B" means the amount of radioactivity of ³H-CGS 21680 bound in the presence of a test compound at a concentration shown in Table 4. • 2. "T" means the amount of radioactivity of ³H-CGS 21680 bound in the absence of a test compound. • 3. "N" means the amount of radioactivity of ³H-CGS 21680 bound in the presence of 100 µM CPA.

A₁ receptor = target: T2, A₁ receptor (Cavia porcellus, UniProt P47745); assay: Adenosine A₁ receptor binding test (³H-CHA binding); parameters: species or system guinea pig
T2 construct: from tissue; host or cells: guinea pig cerebrum membrane preparation
T2 sequence (P47745 1-326): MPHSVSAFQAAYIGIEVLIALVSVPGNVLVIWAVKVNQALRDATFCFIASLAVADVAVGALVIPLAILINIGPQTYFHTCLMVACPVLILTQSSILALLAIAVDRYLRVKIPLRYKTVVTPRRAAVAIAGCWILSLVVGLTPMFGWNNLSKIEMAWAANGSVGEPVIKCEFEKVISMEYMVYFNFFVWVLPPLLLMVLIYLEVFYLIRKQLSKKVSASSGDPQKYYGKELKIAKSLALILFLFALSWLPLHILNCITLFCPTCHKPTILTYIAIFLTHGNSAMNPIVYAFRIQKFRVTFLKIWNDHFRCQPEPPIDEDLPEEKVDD
Description: Cerebrum of a guinea pig was suspended in ice-cooled 50 mM Tris hydroxymethyl aminomethane hydrochloride (Tris HCl) buffer (pH 7.7) by using Polytron homogenizer (manufactured by […] Co.). […] The suspension was centrifuged under the same conditions, and the final precipitate was suspended once again in 50 mM Tris HCl buffer to give a tissue concentration of 100 mg (wet weight)/ml. The tissue suspension was incubated at 37°C for 30 minutes in the presence of 0.02 unit/mg tissue of adenosine deaminase (manufactured by Sigma Co.). The tissue suspension was then centrifuged (50,000 x g, 10 minutes), and 50 mM Tris HCl buffer was added to the precipitate to adjust the concentration of tissue to 10 mg (wet weight)/ml. […] The mixture solution was allowed to stand at 25°C for 90 minutes and then rapidly filtered by suction through a glass fiber filter (GF/C manufactured by Whatman Co.). […] The radioactivity on the filter was determined with a liquid scintillation counter (manufactured by Packard Instrument Co.). […] The inhibition constant (Ki value) shown in the table was calculated by the Cheng-Prusoff's equation.

A₂ receptor [3] = target: T1, A₂ receptor; assay: Adenosine A₂ receptor binding test (³H-NECA binding)
Description: as §1
The mixture solution was allowed to stand at 25°C for 120 minutes and then treated in the same manner as in the adenosine A₁ receptor binding test to determine the radioactivity bound to the A₂ receptors.
The inhibition rate of the test compound against the binding of A₂ receptor (³H-NECA binding) was calculated by the following equation: [formula] [Notes] • 1.

[4] = read-out: Inhibition (%) A₂ Receptor

T1 sequence (P30543 whole entry): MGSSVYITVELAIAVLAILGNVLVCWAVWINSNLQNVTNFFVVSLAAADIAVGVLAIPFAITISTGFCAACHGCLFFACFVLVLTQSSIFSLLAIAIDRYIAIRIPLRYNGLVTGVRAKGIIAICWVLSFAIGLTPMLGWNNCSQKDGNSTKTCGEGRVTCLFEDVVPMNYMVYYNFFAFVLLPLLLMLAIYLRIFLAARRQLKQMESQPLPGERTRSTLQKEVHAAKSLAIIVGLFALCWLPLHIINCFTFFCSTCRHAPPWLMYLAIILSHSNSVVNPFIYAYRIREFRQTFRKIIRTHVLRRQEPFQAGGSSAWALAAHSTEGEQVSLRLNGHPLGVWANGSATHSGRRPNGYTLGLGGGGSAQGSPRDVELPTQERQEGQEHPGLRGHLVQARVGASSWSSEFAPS

Row | Compound | MLD (dd-strain male mice) | Number of the Animals Showing Remission [1] | Remission Rate (%) [1] | Total Score [1] | inhibition at 1 µM (A₂ receptor [2]) | inhibition at 0.1 µM (A₂ receptor [2]) | inhibition at 100 µM (A₁ receptor; 10⁻⁴M, guinea pig cerebrum) | inhibition at 10 µM (A₁ receptor; 10⁻⁵M, guinea pig cerebrum) | Ki (A₁ receptor; Cheng-Prusoff's equation) | Ratio (A₁/A₂) (A₂ receptor [3]; ratio of Ki values A₁/A₂) | inhibition at 0.1 µM (A₂ receptor [3]; [4]) | inhibition at 1 µM (A₂ receptor [3]; [4]) | inhibition at 10 µM (A₂ receptor [3]; [4]) | inhibition at 100 µM (A₂ receptor [3]; [4]) | Ki (A₂ receptor [3]; ³H-NECA binding)
1 | CCn1c(=O)c2c(nc(/C=C/c3ccc(C)cc3)n2C)n(CC)c1=O [Compound 44, (E)-1,3-Diethyl-7-methyl-8-(4-methylstyryl)xanthine] | > 100 mg/kg | 3 | 32% | 17 | 103% | 64% | – | – | – | – | – | – | – | – | –
2 | COc1ccc(/C=C/c2nc3c([nH]2)c(=O)n(C)c(=O)n3C)c(OC)c1OC [Compound 19, (E)-8-(2,3,4-Trimethoxystyryl)theophylline] | > 300 mg/kg | – | – | – | – | – | 31% | 10% | > 100000 nM | > 320 | 65% | 87% | 92% | 91% | 310 nM
3 | CCn1c(=O)c2c(nc(/C=C/c3ccc(OCc4ccccc4)cc3)n2C)n(CC)c1=O [Compound 113, (E)-8-(4-Benzyloxystyryl)-1,3-diethyl-7-methylxanthine] | > 100 mg/kg | 3 | 24% | 19 | 68% | 34% | – | – | – | – | – | – | – | – | –
4 | CCn1c(=O)c2c(nc(/C=C/c3ccc(Br)cc3)n2C)n(CC)c1=O [Compound 78, (E)-8-(4-Bromostyryl)-1,3-diethyl-7-methylxanthine] | > 100 mg/kg | 3 | 28% | 18 | 89% | 68% | – | – | – | – | – | – | – | – | –
5 | CCn1c(=O)c2c(nc(/C=C/c3cccc(OC)c3)n2C)n(CC)c1=O [Compound 40, (E)-1,3-Diethyl-8-(3-methoxystyryl)-7-methylxanthine] | > 300 mg/kg | 5 | 88% | 3 | 98% | 88% | – | – | – | – | – | – | – | – | –
6 | CCn1c(=O)c2c(nc(/C=C/c3ccc(F)cc3)n2C)n(CC)c1=O [Compound 84, (E)-1,3-Diethyl-8-(4-fluorostyryl)-7-methylxanthine] | > 100 mg/kg | 4 | 32% | 17 | 100% | 82% | – | – | – | – | – | – | – | – | –
7 | CCn1c(=O)c2c(nc(/C=C/c3cccc(OC)c3[N+](=O)[O-])n2C)n(CC)c1=O [Compound 64, (E)-1,3-Diethyl-8-(3-methoxy-2-nitrostyryl)-7-methylxanthine] | > 100 mg/kg | 4 | 36% | 16 | 94% | 89% | – | – | – | – | – | – | – | – | –
8 | CCn1c(=O)c2c(nc(/C=C/c3cccc([N+](=O)[O-])c3)n2C)n(CC)c1=O [Compound 90, (E)-1,3-Diethyl-7-methyl-8-(3-nitrostyryl)xanthine] | > 100 mg/kg | 4 | 44% | 14 | 94% | 85% | – | – | – | – | – | – | – | – | –
9 | CCn1c(=O)c2c(nc(/C=C/c3ccc(O)cc3)n2C)n(CC)c1=O [Compound 112, (E)-1,3-Diethyl-8-(4-hydroxystyryl)-7-methylxanthine] | > 100 mg/kg | 5 | 84% | 4 | 95% | 79% | – | – | – | – | – | – | – | – | –
10 | CCn1c(=O)c2c(nc(/C=C/c3cccc(F)c3C)n2C)n(CC)c1=O [Compound 109, (E)-1,3-Diethyl-8-(3-fluoro-2-methylstyryl)-7-methylxanthine] | > 100 mg/kg | 5 | 84% | 4 | 96% | 97% | – | – | – | – | – | – | – | – | –
11 | CCn1c(=O)c2c(nc(/C=C/c3ccc(OCOC)cc3)n2C)n(CC)c1=O [Compound 82, (E)-1,3-Diethyl-8-(4-methoxymethoxystyryl)-7-methylxanthine] | > 100 mg/kg | 5 | 64% | 9 | 98% | 86% | – | – | – | – | – | – | – | – | –
12 | CCn1c(=O)c2c(nc(/C=C/c3ccc(OC)c(F)c3)n2C)n(CC)c1=O [Compound 103, (E)-1,3-Diethyl-8-(3-fluoro-4-methoxystyryl)-7-methylxanthine] | > 100 mg/kg | 3 | 36% | 16 | 102% | 75% | – | – | – | – | – | – | – | – | –
13 | CCn1c(=O)c2c(nc(/C=C/c3ccc(O)c(O)c3)n2C)n(CC)c1=O [Compound 110, (E)-8-(3,4-Dihydroxystyryl)-1,3-diethyl-7-methylxanthine] | > 100 mg/kg | 3 | 20% | 20 | 96% | 61% | – | – | – | – | – | – | – | – | –
14 | CCn1c(=O)c2c(nc(/C=C/c3cccc(Br)c3)n2C)n(CC)c1=O [Compound 92, (E)-8-(3-Bromostyryl)-1,3-diethyl-7-methylxanthine] | > 100 mg/kg | 4 | 52% | 12 | 103% | 93% | – | – | – | – | – | – | – | – | –
15 | CCn1c(=O)c2c(nc(/C=C/c3cc(C(F)(F)F)cc(C(F)(F)F)c3)n2C)n(CC)c1=O [Compound 86, (E)-8-[3,5-Bis(trifluoromethyl)styryl]-1,3-diethyl-7-methylxanthine] | > 100 mg/kg | 3 | 36% | 16 | 73% | 29% | – | – | – | – | – | – | – | – | –
